{"source": "patent US5278181A", "about": "“Soluble alkyl[5-[amino (phenyl)methyl]-1H-benzimidazol-2-yl] carbamate anthelmintics” (priority 1992, dated 1994)", "key": {"[1]": {"test": "physchem", "conditions": "water"}, "[2]": {"test_system": "Acanthocheilonema viteae", "test": "Antifilarial dual infection screen in jirds: adult A. viteae burden and microfilaremia", "type": "in vivo, in Mongolian jirds", "from_the_text": "(§1) Dual infections of the filarial worms Brugia pahangi and Acanthocheilonema viteae in jirds are used routinely for antifilarial screening [McCall, J. W., McTier, T. L., and Rowan, S. J., \"In vivo models for evaluating potential antifilarial agents\", Onchocerciasis/Filariasis (Proceedings of a Symposium sponsored by the World Health Organization), Kalamazoo, Mich., Apr. 8-10, 23-24 (1986)].\nFor this dual infection screen, male Mongolian jirds weighing 50-60 g are infected SC with 10 (5 male and 5 female) adult A. viteae, transplanted under sodium pentobarbital anesthesia (48 mg/kg) from donor hamsters infected SC 8 weeks earlier. Two weeks later, 20 (10 male and 10 female) adult B. pahangi, taken from donor jirds infected IP 8 weeks earlier, are transplanted into the peritoneal cavity of each jird under sodium pentobarbital anesthesia. After an additional week, when the jirds have acceptable levels of microfilaremia, they are randomly allocated to treatment groups of 3 animals each and a nontreated group of 4-6 animals. Microfilaremia is determined on days 0 (just prior to the first dose), 4 and 56 post-treatment. Unless indicated otherwise, compounds are suspended in hydroxyethylcellulose (0.5%) - Tween 80 (0.1%) and administered SC at 100 mg/kg/day for 5 consecutive days. All jirds are killed on day 56 post-treatment to determine the effects of drugs on adults of A. viteae and B. pahangi. Live worms are identified as to species, noted as to sex, and counted. The number of dead and/or encapsulated worms is also recorded. A reduction of ≥80% in microfilaremia or ≥50% in adult worm burden (either species) compared with pre-treatment microfilaremia or non-treated control worm burden, respectively, is considered to be significant. For secondary testing with this dual infection screen, groups of 7 animals each are used. For oral dosing, drugs are dissolved or suspended in hydroxyethylcellulose - Tween 80 and administered by gavage."}, "[3]": {"test_system": "B. pahangi and A. viteae", "test": "Antifilarial activity in jirds, dual infection, summary in words", "type": "in vivo", "conditions": "both oral and parenteral routes", "from_the_text": "as §1\nFor this dual infection screen, male Mongolian jirds weighing 50-60 g are infected SC with 10 (5 male and 5 female) adult A. viteae, transplanted under sodium pentobarbital anesthesia (48 mg/kg) from donor hamsters infected SC 8 weeks earlier. Two weeks later, 20 (10 male and 10 female) adult B. pahangi, taken from donor jirds infected IP 8 weeks earlier, are transplanted into the peritoneal cavity of each jird under sodium pentobarbital anesthesia. After an additional week, when the jirds have acceptable levels of microfilaremia, they are randomly allocated to treatment groups of 3 animals each and a nontreated group of 4-6 animals. Microfilaremia is determined on days 0 (just prior to the first dose), 4 and 56 post-treatment. […] Live worms are identified as to species, noted as to sex, and counted. The number of dead and/or encapsulated worms is also recorded. […]"}, "[4]": {"test_system": "Brugia pahangi", "test": "Antifilarial effect in beagle dogs infected with Brugia pahangi", "type": "in vivo", "conditions": "for Dogs cured/Treated / Percent reduction Macrofilariae / Percent reduction Microfilariae: PO", "from_the_text": "The infective larvae of B. pahangi were produced and collected as described by McCall [J. Georgia Entomol. Soc. 16:283-293, (1981)]. The dogs were given 100 L3 of B. pahangi by subcutaneous injection (SC) into the dorsum of each hind paw or 200 L3 in one hind paw (i.e., a total inoculum of 200 L3 per dog).\nThe dogs were randomly allocated to treatment groups containing 4 dogs. The dogs were divided by sex and ranked by declining baseline microfilarial counts (average count based on the 5 bleedings made before the day of treatment). Those dogs which were amicrofilaremic or had very few microfilariae were excluded from the trial. Of the remaining dogs, those with the highest baseline microfilaremias were assigned to seven-dog replicates. The sex of the dogs within three of the replicates was the same, while the fourth replicate contained dogs of both sexes. The dogs of a given sex with the highest levels of microfilaremia were placed in the same replicate. The next set of dogs of that sex with the next highest levels of microfilaremia was assigned to the next replicate, and so on until all of the replicates were filled. The dogs within each complete replicate were assigned to test groups using a table of random numbers [Ostle and Mensing, Statistics in Research, Third Edition, Iowa State University Press, Ames, Iowa, pp. 560-563, (1975)]. The test groups were likewise assigned to either control or treatment groups using the table of random numbers.\nThe first day of treatment, day 0, was approximately 144 days after infection. Drugs were administered orally as a 10% suspension in HEC-Tween 80 or in soft gelatin capsules. Drugs were administered intramuscularly or subcutaneously as a 10% suspension in peanut oil or in HEC-Tween 80. Groups of four dogs served in sham-treated controls in each experiment. All of the treatments were given by IM injection in the dorsal lumbar muscles.\nAll dogs were observed frequently during each day of treatment and daily throughout the remainder of the study for any signs of reactions. In addition, the hair was shaved at the injection sites to facilitate the observation of possible tissue irritation resulting from treatment.\nBlood was collected from each dog on days 51, 43, 27, 19, and 5 before treatment to determine baseline microfilaremias and allocate the dogs to treatment groups. Blood was then collected from all dogs on the day before treatment on day -1, on days 7, 10, 14, 21, 28, 35, 42, 49, and 56 days after treatment. All bleedings were done at approximately the same time of day (11:00-12:00 E.S.T.). Two 20-μl blood films were prepared from each sample and stained with giemsa. Microfilarial counts were made from the 2 blood films.\nThe dogs were euthanized for necropsy either two or six months after the first day of treatment. Just prior to euthanasia, the dogs were given a subcutaneous injection (SC) of a two percent solution of Evans blue into the dorsum of both hind paws in order to help delineate the lymphatic vessels. This was followed at least 30 minutes later with a lethal dose of Fatal-Plus® (Vortech Pharmaceuticals, Dearborn, Mich.). A limited necropsy was performed on each dog with examination of the afferent and efferent lymphatics of both hindlimbs and the popliteal, inguinal, internal and external iliac, and lumbar lymph nodes. Any live or dead worms seen were removed. These vessels and lymph nodes were removed, teased, and soaked overnight in normal saline to allow any worms to migrate out of the tissues. The condition of the worms, their sex and number, and the location from which they were recovered were noted.\nEffectiveness against the adult parasites was determined as follows: [formula] Effectiveness against microfilariae for a given day after treatment was determined as follows: [formula]\nThe adult B. pahangi counts and the microfilarial counts were compared using a one way analysis of variance (ANOVA). […]"}, "[5]": {"conditions": "50(34 free base) mg/kg/day bid × 5, gelatin capsules, not significantly different from control"}, "[6]": {"conditions": "100(78 free base) mg/kg/day bid × 5, gelatin capsules"}, "[7]": {"conditions": "200(155 free base) mg/kg/day bid × 5, HEC-Tween 80"}, "[8]": {"conditions": "200(155 free base) mg/kg/day bid × 5, gelatin capsules"}}, "note": "“And” between values parts separate entries of the source, which are not always exact repeats. Equal entries are not always repeated.", "data": [{"smiles": "COC(=O)Nc1nc2cc(C(N)c3ccc(F)cc3)ccc2[nH]1.Cl.Cl", "note": "(racemic) [Example 2, Methyl (±)-[5-[Amino(4Fluorophenyl)Methyl]-1H-Benzimidazol-2-yl]Carbamate Dihy drochloride Salt]", "values": [{"measurement": "solubility", "setting": "[1]", "result": "> 50", "unit": "mg/mL"}, {"measurement": "% Macrofilarial reduction, A. viteae", "setting": "[2]; 1.56 mg/kg/day × 5 days, SC, day 56", "result": 48, "unit": "%"}, {"measurement": "% Microfilarial reduction, A. viteae, Day 4", "setting": "[2]; 3.13 mg/kg/day × 5 days, SC", "result": 88, "unit": "%"}, {"measurement": "% Microfilarial reduction, A. viteae, Day 56", "setting": "[2]; 3.13 mg/kg/day × 5 days, SC", "result": 100, "unit": "%"}, {"measurement": "% Macrofilarial reduction, A. viteae", "setting": "[2]; 3.13 mg/kg/day × 5 days, SC, day 56, 3.13 mg/kg/day", "result": "74% and 69%"}, {"measurement": "% Microfilarial reduction, A. viteae, Day 4", "setting": "[2]; 6.25 mg/kg/day × 5 days, SC", "result": 83, "unit": "%"}, {"measurement": "% Microfilarial reduction, A. viteae, Day 56", "setting": "[2]; 6.25 mg/kg/day × 5 days, SC", "result": 100, "unit": "%"}, {"measurement": "% Macrofilarial reduction, A. viteae", "setting": "[2]; 6.25 mg/kg/day × 5 days, SC, day 56", "result": 100, "unit": "%"}, {"measurement": "% Macrofilarial reduction, A. viteae", "setting": "[2]; 12.5 mg/kg/day × 1 day, SC, day 56", "result": 83, "unit": "%"}, {"measurement": "% Microfilarial reduction, A. viteae, Day 4", "setting": "[2]; 12.5 mg/kg/day × 5 days, SC", "result": 80, "unit": "%"}, {"measurement": "% Microfilarial reduction, A. viteae, Day 56", "setting": "[2]; 12.5 mg/kg/day × 5 days, SC", "result": 100, "unit": "%"}, {"measurement": "% Macrofilarial reduction, A. viteae", "setting": "[2]; 12.5 mg/kg/day × 5 days, SC, day 56", "result": 100, "unit": "%"}, {"measurement": "% Macrofilarial reduction, A. viteae", "setting": "[2]; 25 mg/kg/day × 1 day, SC, day 56", "result": 96, "unit": "%"}, {"measurement": "% Macrofilarial reduction, A. viteae", "setting": "[2]; 25 mg/kg/day × 5 days, SC, day 56", "result": 100, "unit": "%"}, {"measurement": "% Macrofilarial reduction, A. viteae", "setting": "[2]; 75 mg/kg/day × 5 days, oral, day 56", "result": 83, "unit": "%"}, {"measurement": "% Microfilarial reduction, A. viteae, Day 4", "setting": "[2]; 100 mg/kg/day × 5 days, oral", "result": 50, "unit": "%"}, {"measurement": "% Microfilarial reduction, A. viteae, Day 56", "setting": "[2]; 100 mg/kg/day × 5 days, oral", "result": 75, "unit": "%"}, {"measurement": "% Macrofilarial reduction, A. viteae", "setting": "[2]; 100 mg/kg/day × 5 days, oral, day 56", "result": 80, "unit": "%"}, {"measurement": "antifilarial activity in jirds", "setting": "[3]", "result": "outstanding antifilarial activity"}, {"measurement": "Dogs cured/Treated", "setting": "[4]; 50(34 free base) mg/kg/day bid × 5, gelatin capsules", "result": "0/4"}, {"measurement": "Percent reduction Macrofilariae", "setting": "[4]; [5]", "result": 71, "unit": "%"}, {"measurement": "Percent reduction Microfilariae", "setting": "[4]; [5]", "result": 89, "unit": "%"}, {"measurement": "Dogs cured/Treated", "setting": "[4]; [6]", "result": "0/4"}, {"measurement": "Percent reduction Microfilariae", "setting": "[4]; [6]", "result": 86, "unit": "%"}, {"measurement": "Percent reduction Macrofilariae", "setting": "[4]; 100(78 free base) mg/kg/day bid × 5, gelatin capsules, not significantly different from control", "result": 23, "unit": "%"}, {"measurement": "Percent reduction Macrofilariae", "setting": "[4]; 200(155 free base) mg/kg/day bid × 1, HEC-Tween 80", "result": 97, "unit": "%"}, {"measurement": "Dogs cured/Treated", "setting": "[4]; 200(155 free base) mg/kg/day bid × 1, HEC-Tween 80, necropsied 6 months", "result": "1/3"}, {"measurement": "Percent reduction Microfilariae", "setting": "[4]; 200(155 free base) mg/kg/day bid × 1, HEC-Tween 80, not significantly different from control", "result": 77, "unit": "%"}, {"measurement": "Percent reduction Macrofilariae", "setting": "[4]; 200(155 free base) mg/kg/day bid × 3, HEC-Tween 80", "result": 90, "unit": "%"}, {"measurement": "Dogs cured/Treated", "setting": "[4]; 200(155 free base) mg/kg/day bid × 3, HEC-Tween 80, necropsied 6 months", "result": "0/3"}, {"measurement": "Percent reduction Microfilariae", "setting": "[4]; 200(155 free base) mg/kg/day bid × 3, HEC-Tween 80, not significantly different from control", "result": 71, "unit": "%"}, {"measurement": "Percent reduction Macrofilariae", "setting": "[4]; [7]", "result": 100, "unit": "%"}, {"measurement": "Percent reduction Microfilariae", "setting": "[4]; [7]", "result": 100, "unit": "%"}, {"measurement": "Dogs cured/Treated", "setting": "[4]; 200(155 free base) mg/kg/day bid × 5, HEC-Tween 80, necropsied 6 months", "result": "3/3"}, {"measurement": "Percent reduction Macrofilariae", "setting": "[4]; [8]", "result": 99, "unit": "%"}, {"measurement": "Percent reduction Microfilariae", "setting": "[4]; [8]", "result": 100, "unit": "%"}, {"measurement": "Dogs cured/Treated", "setting": "[4]; 200(155 free base) mg/kg/day bid × 5, gelatin capsules, necropsied 6 months", "result": "5/6"}, {"measurement": "Percent reduction Macrofilariae", "setting": "[4]; 200(155 free base) mg/kg/day × 1, HEC-Tween 80", "result": 79, "unit": "%"}, {"measurement": "Dogs cured/Treated", "setting": "[4]; 200(155 free base) mg/kg/day × 1, HEC-Tween 80, necropsied 6 months", "result": "1/3"}, {"measurement": "Percent reduction Microfilariae", "setting": "[4]; 200(155 free base) mg/kg/day × 1, HEC-Tween 80, not significantly different from control", "result": 74, "unit": "%"}, {"measurement": "Percent reduction Macrofilariae", "setting": "[4]; 200(155 free base) mg/kg/day × 3, HEC-Tween 80", "result": 97, "unit": "%"}, {"measurement": "Dogs cured/Treated", "setting": "[4]; 200(155 free base) mg/kg/day × 3, HEC-Tween 80, necropsied 6 months", "result": "1/3"}, {"measurement": "Percent reduction Microfilariae", "setting": "[4]; 200(155 free base) mg/kg/day × 3, HEC-Tween 80, not significantly different from control", "result": 78, "unit": "%"}, {"measurement": "cure of B. pahangi infections", "setting": "[4]; oral, 200 mg/kg/day (155 base equivalent) for 1, 3 or 5 days", "result": "cured dogs of B. pahangi infections"}]}]}
